The target in the assay is T1, P-glycoprotein (PGP/MDR1) (Homo sapiens, UniProt P08183).
T1 construct: gene ABCB1; recombinant human PGP in membrane vesicles (Human MDR1 vesicles)
As to the kind of experiment: ATPase stimulation (ADP-Glo Max) in human MDR1 vesicles; also Calcein-AM retention in HepG2 cells. The format is biochemical.

T1 sequence (P08183 whole entry): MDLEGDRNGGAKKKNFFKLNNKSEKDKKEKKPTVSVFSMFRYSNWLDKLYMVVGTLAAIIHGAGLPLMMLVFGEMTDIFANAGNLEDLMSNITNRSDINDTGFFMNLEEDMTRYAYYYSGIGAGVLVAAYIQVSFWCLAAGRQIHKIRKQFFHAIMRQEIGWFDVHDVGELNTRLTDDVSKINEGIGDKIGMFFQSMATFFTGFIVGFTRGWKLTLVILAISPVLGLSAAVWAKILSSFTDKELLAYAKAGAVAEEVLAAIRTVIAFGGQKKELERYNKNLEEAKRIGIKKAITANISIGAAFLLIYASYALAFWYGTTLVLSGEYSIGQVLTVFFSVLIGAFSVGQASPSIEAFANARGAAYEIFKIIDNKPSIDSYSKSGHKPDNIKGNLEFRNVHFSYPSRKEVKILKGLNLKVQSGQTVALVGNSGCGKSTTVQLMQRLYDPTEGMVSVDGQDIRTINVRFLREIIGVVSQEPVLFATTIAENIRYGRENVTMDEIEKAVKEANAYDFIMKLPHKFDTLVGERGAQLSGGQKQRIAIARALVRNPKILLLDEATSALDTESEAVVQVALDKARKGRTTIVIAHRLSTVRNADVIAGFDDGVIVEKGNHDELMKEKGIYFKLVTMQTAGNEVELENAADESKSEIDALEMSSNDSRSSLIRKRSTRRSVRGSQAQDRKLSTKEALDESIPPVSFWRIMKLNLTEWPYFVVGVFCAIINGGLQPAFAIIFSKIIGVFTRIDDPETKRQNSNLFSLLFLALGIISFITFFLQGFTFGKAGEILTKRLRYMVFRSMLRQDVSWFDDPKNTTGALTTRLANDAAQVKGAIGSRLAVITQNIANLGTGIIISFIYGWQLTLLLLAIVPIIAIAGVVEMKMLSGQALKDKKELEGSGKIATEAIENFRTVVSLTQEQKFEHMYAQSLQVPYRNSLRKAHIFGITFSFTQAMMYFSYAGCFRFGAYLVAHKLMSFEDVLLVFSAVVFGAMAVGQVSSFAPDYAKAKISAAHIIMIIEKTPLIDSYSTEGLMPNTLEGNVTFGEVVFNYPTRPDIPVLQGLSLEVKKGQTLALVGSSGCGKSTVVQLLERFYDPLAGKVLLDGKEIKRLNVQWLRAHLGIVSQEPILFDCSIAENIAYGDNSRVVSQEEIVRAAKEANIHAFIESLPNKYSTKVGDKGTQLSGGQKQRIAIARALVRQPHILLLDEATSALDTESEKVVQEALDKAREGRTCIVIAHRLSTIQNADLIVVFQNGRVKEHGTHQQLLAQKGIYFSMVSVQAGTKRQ

As to `OC[C@H]1O[C@H](O[C@]2(CCl)O[C@H](CCl)[C@@H](O)[C@@H]2O)[C@H](O)[C@@H](O)[C@H]1Cl` [Sucr, sucralose], the EC50 was 56 pM.

For orientation: EC50 means the midpoint of the concentration-response curve.
